From patent US20230293479A1, “MEDICINAL COMPOUNDS AND NUTRITIONAL SUPPLEMENTS” (RECEPTOR HOLDINGS, INC., priority 2017, published 2023)

Columns and labels:
[1] = Example 4: cannabis/SNAC oral rat pharmacokinetic (PK) study; assay type: in vivo, rats; settings: for Cmax increase over cannabis alone: oral gavage, 50 mg/kg cannabis extract with 500 mg/kg SNAC versus 25 mg/kg cannabis alone
Experimental: Example 4. Summary of cannabis/SNAC oral rat pharmacokinetic (PK) study.
Methods. Animals were dosed on Day 1 and a series of blood samples were collected over a period of 4 hours post dose for pharmacokinetic evaluation. Animals were euthanized following collection of their last blood sample.

study participants [2] = assay: Example 1: onset and duration of action of orally administered cannabis/SNAC composition (self-reported euphoria/dysphoria, 200 mg SNAC); assay type: in vivo, human; settings: oral cannabinoid formulation, 200 mg SNAC
Experimental: Example 1. […] This study was designed to assess the utility of SNAC in enabling a rapid-acting oral form of cannabis.
Selection of Participants. Six study participants were recruited to ingest cannabis compositions and record the onset, duration, and intensity of cannabis-induced euphoria and/or dysphoria.
(§1) Formulations. The selected cannabis concentrate is commercially available and was provided to participants in an ethanol solution. The concentrate contains 8 mg THC per dose. It was selected because it contains a high percentage of THC, which provides a noticeable effect on user-reported “euphoria”.
(§2) Methods. For the Control experiment, each participant mixed the cannabis concentrate with 15 ml (one tablespoon) of aqueous ethanol, and immediately swallowed the mixture.
(§3) For both the Control experiment and the Test experiment, each participant recorded the time of dose administration, the time of onset of euphoria and/or dysphoria, and the observed level of euphoria and/or dysphoria in fifteen minute intervals for five hours following administration of the cannabis dose. Euphoria and dysphoria were reported using a scale value, in a range from 1-10.

study participants [3] = assay: Example 2: onset and duration of action of orally administered cannabis/SNAC composition at a low SNAC dose (100 mg); assay type: in vivo, human; settings: oral cannabinoid formulation, 100 mg SNAC
Experimental: Example 2. […] This study was designed to assess the utility of SNAC in enabling a rapid-acting oral form of cannabis at a low dose.
Selection of Participants. Three study participants were recruited to ingest cannabis compositions and record the onset, duration, and intensity of cannabis-induced euphoria and/or dysphoria.
as §1, §2, §3

[4] = cited from earlier work

Compound	Cmax increase over cannabis alone ([1]; rats)	mean maximum concentration Cmax ([1]; rats, single oral gavage, cannabis extract (THC/CBD 1:1) with SNAC, range over Groups 3-5 (25/250, 25/500, 50/500 mg extract/kg and mg SNAC/kg))	AUC0-Tlast ([1]; rats, single oral gavage, cannabis extract with SNAC, range over Groups 3-5)	time to reach the mean maximum plasma concentration (Tmax) ([1]; rats, single oral gavage, cannabis extract with SNAC, range over Groups 3-5, post dose)	effect on cannabinoid absorption ([1]; administered to rats by oral gavage)	effect of the absorption enhancer on the cannabinoid duration of action (study participants [2])	effect of the absorption enhancer on the duration of action (study participants [3])	duration of appetite stimulant effect ([4]; after administration)	onset of action ([4]; after oral administration)	peak effect ([4]; after oral administration)	administered dose reaching the systemic circulation ([4]; oral, first pass hepatic metabolism and high lipid solubility)
C=C(C)[C@@H]1CCC(C)=C[C@H]1c1c(O)cc(CCCCC)cc1O [CBD, cannabidiol]	14.2 fold	31.7 to 159.3 ng/mL	13.17 to 382.14 ng·h/mL	15 to 60 min							
O=C([O-])CCCCCCCNC(=O)c1ccccc1O.[Na+] [SNAC, sodium N-[8-(2-hydroxybenzoyl)amino] caprylate]					enhances cannabinoid absorption	no effect	no effect				
CCCCCc1cc(O)c2c(c1)OC(C)(C)[C@@H]1CCC(C)=C[C@@H]21 [THC, (−)-trans-delta-9-tetrahydrocannabinol]	6.9 fold							≥ 24 h	0.5 to 1 h	2 to 4 h	10-20%
